Reference: patent US20090042964A1, “AMINO-5-[SUBSTITUTED-4-(DIFLUOROMETHOXY)PHENYL]-5-PHENYLIMIDAZOLONE COMPOUNDS AS BETA-SECRETASE INHIBITORS” (Wyeth, priority 2007, published 2009)
Where two headings read alike, the source gives them in different places.

Target: human BACE1 (Homo sapiens, UniProt P56817)
Experiment: Fluorescent kinetic assay, evaluation of BACE1 binding affinity of test compounds
Type: biochemical
Conditions: 10 nM human BACE1, 25 μM substrate WABC-6, pH 4.5, room temperature
Outline: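 Kinetic fluorescence assay: enzyme added last to inhibitor and substrate mix, reading started immediately; substrate at 100 μM working dilution (25 μL in 100 μL total). Buffer 66.7 mM Na-acetate pH 4.5 with 0.0667% CHAPS for inhibitor and enzyme dilutions; enzyme stock quantified at 280 nm.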

Sequence of human BACE1 (P56817 46-501): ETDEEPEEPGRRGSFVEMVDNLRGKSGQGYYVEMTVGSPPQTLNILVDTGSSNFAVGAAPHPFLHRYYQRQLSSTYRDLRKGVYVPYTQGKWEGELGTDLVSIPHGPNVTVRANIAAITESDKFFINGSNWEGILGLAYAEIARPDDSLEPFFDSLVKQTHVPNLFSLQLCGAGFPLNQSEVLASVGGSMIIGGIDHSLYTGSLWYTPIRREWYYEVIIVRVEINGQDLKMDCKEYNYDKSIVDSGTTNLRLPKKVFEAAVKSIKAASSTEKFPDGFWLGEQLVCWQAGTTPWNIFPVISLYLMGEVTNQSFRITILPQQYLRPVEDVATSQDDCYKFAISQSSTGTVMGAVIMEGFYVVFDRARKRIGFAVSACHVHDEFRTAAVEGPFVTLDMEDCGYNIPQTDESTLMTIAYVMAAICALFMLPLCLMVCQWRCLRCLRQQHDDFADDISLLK

SMILES | IC50 (read-out: BACE1 IC50) [µM] | IC50 (BACE1 IC50 μM) [µM]
CN1C(=O)C(c2ccc(F)c(OCC(F)F)c2)(c2ccc(OC(F)F)c(C3CC3)c2)N=C1N (centres unmarked) [Example 123, 2-Amino-5-[3-cyclopropyl-4-(difluoromethoxy)phenyl]-5-[3-(2,2-difluoroethoxy)-4-fluorophenyl]-3-methyl-3,5-dihydro-4H-imidazol-4-one] | < 0.1 | –
CCc1cc([C@]2(c3ccc(F)c(OCC(F)F)c3)N=C(N)N(C)C2=O)ccc1OC(F)F [Example 119, (5R)-2-Amino-5-[3-(2,2-difluoroethoxy)-4-fluorophenyl]-5-[4-(difluoromethoxy)-3-ethylphenyl]-3-methyl-3,5-dihydro-4H-imidazol-4-one] | < 0.1 | –
CCCc1cc([C@]2(c3ccccc3)N=C(N)N(C)C2=O)ccc1OC(F)F (single isomer, unassigned) [Example 80] | > 1 | –
COCC#Cc1cccc([C@@]2(c3ccc(OC(F)F)c(C)c3)N=C(N)N(C)C2=O)c1 [Example 69, (5S)-2-Amino-4-(4-(difluoromethoxy)-3-methylphenyl)-4-(3-(3-methoxyprop-1-ynyl)phenyl)-1-methyl-1H-imidazol-5(4H)-one] | < 0.1 | –
CN1C(=O)[C@@](c2cccc(C#CCCCF)c2)(c2ccc(OC(F)F)c(C3CC3)c2)N=C1N (single isomer, unassigned) [Example 193] | 0.11 to 1 | –
CCc1cc([C@@]2(c3ccc(F)c(C#CCOC)c3)N=C(N)N(C)C2=O)ccc1OC(F)F [Example 157, (5S)-2-Amino-5-[4-(difluoromethoxy)-3-ethylphenyl]-5-[4-fluoro-3-(3-methoxyprop-1-yn-1-yl)phenyl]-3-methyl-3,5-dihydro-4H-imidazol-4-one] | 0.11 to 1 | –
COCCCC#Cc1cccc(C2(c3ccc(OC(F)F)c(C4CC4)c3)N=C(N)N(C)C2=O)c1 (centres unmarked) [Example 186, 2-amino-4-(3-cyclopropyl-4-(difluoromethoxy)phenyl)-4-(3-(5-methoxypent-1-ynyl)phenyl)-1-methyl-1H-imidazol-5(4H)-one] | < 0.1 | –
CCc1cc([C@]2(c3cccc(C#CCF)c3)N=C(N)N(C)C2=O)ccc1OC(F)F [Example 161, (5S)-2-Amino-5-[4-(difluoromethoxy)-3-ethylphenyl]-5-[3-(3-fluoroprop-1-yn-1-yl)phenyl]-3-methyl-3,5-dihydro-4H-imidazol-4-one] | < 0.1 | –
Cc1cc(C2(c3ccc(F)c(OCCF)c3)N=C(N)N(C)C2=O)ccc1OC(F)F (centres unmarked) [Example 109, 2-Amino-5-[4-(difluoromethoxy)-3-methylphenyl]-5-[4-fluoro-3-(2-fluoroethoxy)phenyl]-3-methyl-3,5-dihydro-4H-imidazol-4-one] | < 0.1 | –
CCc1cc(C2(c3ccc(F)cc3)N=C(N)N(C)C2=O)ccc1OC(F)F (centres unmarked) [Example 7, 2-Amino-4-[4-(difluoromethoxy)-3-ethylphenyl]-4-(4-fluorophenyl)-1-methyl-1H-imidazol-5(4H)-one] | – | 0.11 to 1
CCCOc1cccc(C2(c3ccc(OC(F)F)c(C)c3)N=C(N)N(C)C2=O)c1 (centres unmarked) [Example 44, 2-Amino-5-[4-(difluoromethoxy)-3-methylphenyl]-3-methyl-5-(3-propoxyphenyl)-3,5-dihydro-4H-imidazol-4-one] | < 0.1 | –
C=Cc1cc([C@@]2(c3ccccc3)N=C(N)N(C)C2=O)ccc1OC(F)F [Example 33, (5R)-2-Amino-5-[4-(difluoromethoxy)-3-vinylphenyl]-3-methyl-5-phenyl-3,5-dihydro-4H-imidazol-4-one] | – | < 0.1
CCc1cc([C@@]2(c3cccc(C#CCF)c3)N=C(N)N(C)C2=O)ccc1OC(F)F [Example 160, (5R)-2-Amino-5-[4-(difluoromethoxy)-3-ethylphenyl]-5-[3-(3-fluoroprop-1-yn-1-yl)phenyl]-3-methyl-3,5-dihydro-4H-imidazol-4-one] | > 1 | –
CCc1cc([C@@]2(c3ccc(F)c(C#CC4CC4)c3)N=C(N)N(C)C2=O)ccc1OC(F)F [Example 148, (5S)-2-Amino-5-[3-(cyclopropylethynyl)-4-fluorophenyl]-5-[4-(difluoromethoxy)-3-ethylphenyl]-3-methyl-3,5-dihydro-4H-imidazol-4-one] | 0.11 to 1 | –
